Literature values, collected in patent US6660297B2, “Nutritional supplement to treat macular degeneration” (Bausch & Lomb Incorporated, priority 2001, dated 2003).
Where two headings read alike, the source gives them in different places.

Assays:
[1] = 1.0 mg equal to 1 IU
[2] = in vivo
[3] = in vivo; remark: listed apart in the source
[4] = consumed daily
[5] = not given; remark: listed apart in the source
macular degeneration = details: 80 mg of zinc versus placebo
[6] = in vivo; remark: listed apart in the source

Q: With `CC(=O)Oc1c(C)c(C)c2c(c1C)CC[C@@](C)(CCC[C@H](C)CCC[C@H](C)CCCC(C)C)O2` (racemic) [dl-alpha tocopheryl acetate] as the compound, how does the “level at which no adverse effects have been observed” value [1] read?
A: Its value is ≤ 800 mg.

Q: With `CC1=C(/C=C/C(C)=C/C=C/C(C)=C/C=C/C=C(C)/C=C/C=C(C)/C=C/C2=C(C)CCCC2(C)C)C(C)(C)CCC1` [beta-carotene] as the compound, how does the “efficiency of conversion to vitamin A in the body” value [2] read?
A: Its value is “approximately 50%”.

Q: And the “observed risk in individuals who receive 20 mg/day” value (male smokers)?
A: Its value is “increased risk of lung cancer”.

Q: And the “observed risk in individuals who receive 20 mg/day” value (men with previous myocardial infarction)?
A: Its value is “increased risk of fatal coronary heart attacks”.

Q: What about the “dosage level with no observed adverse effects” value (healthy, non-smokers) of the same compound?
A: Its value is ≤ 25 mg per day.

Q: For `[Cu]` [copper], which “effect on zinc absorption” value [3] is on record?
A: The value was “does not appear to have a deleterious effect”.

Q: For `O=C1O[C@H]([C@@H](O)CO)C(O)=C1O` [vitamin C, Ascorbic acid], which “daily intake without any known adverse effects” value [4] is on record?
A: The value was ≥ 1,000 mg.

Q: With `[O]=[Zn]` [zinc oxide] as the compound, how does the “tolerability in the digestive system” value ([5]; in vivo) read?
A: The value was “well tolerated”.

Q: With `[Zn]` [zinc] as the compound, how does the “retarding macular degeneration changes” value (macular degeneration) read?
A: The value was “significantly better than placebo”.

Q: And the tolerability ([5]; about 200 mg per day)?
A: The tolerability was “well tolerated”.

Q: And the side effects ([5]; about 200 mg per day, attributable to copper deficiency)?
A: Its side effects is “potential side effects such as anemia”.

Q: Which “time stored vitamin E contributes to the total body pool” value [6] does the source give for vitamin E here?
A: Its value is “up to one”.
